These compounds were tested against human adenosine A2b receptor (Homo sapiens (Human), UniProt P29275) (assay: Cellular in vitro reporter gene test for A2b receptor activity (CHO-K1, CRE-luciferase, NECA stimulation)). Conditions: recombinant CHO-K1 cell line, CRE-luciferase reporter, antagonism of EC50 concentration of NECA; in some cases means of several determinations, rounded to two significant figures; read-out: A2b receptor IC50.
Assay type: cell-based
Outline: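 CHO-K1 cells with CRE-driven luciferase; antagonists co-incubated with NECA at its EC50, determined in a pre-experiment on each test day. Luciferase read by luminescence 3 h after NECA addition.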

Chain of human adenosine A2b receptor (P29275 whole entry): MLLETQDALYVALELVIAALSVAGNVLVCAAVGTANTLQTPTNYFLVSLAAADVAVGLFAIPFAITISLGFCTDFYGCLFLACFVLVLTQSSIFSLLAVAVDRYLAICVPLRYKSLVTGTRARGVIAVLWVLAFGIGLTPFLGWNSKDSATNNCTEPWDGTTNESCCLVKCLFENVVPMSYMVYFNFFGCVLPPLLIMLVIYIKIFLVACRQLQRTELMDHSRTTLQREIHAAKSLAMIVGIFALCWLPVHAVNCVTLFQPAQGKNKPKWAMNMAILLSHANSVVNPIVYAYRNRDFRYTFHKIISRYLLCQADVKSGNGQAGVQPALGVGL

Structure (SMILES) | IC50 [nM]
Cc1c(CN2CCNC2=O)sc2c1c(=O)n(C(C)C)c(=O)n2CC1CCCO1 (single isomer, unassigned) [Example 187, 3-Isopropyl-5-methyl-6-[(2-oxoimidazolidin-1-yl)methyl]-1-(tetrahydrofuran-2-ylmethyl)thieno[2,3-d]pyrimidine-2,4(1H,3H)-dione] | 6.3
Cc1c(CN2CCNC2=O)sc2c1c(=O)n(C(C)C)c(=O)n2CC1CCCO1 (single isomer, unassigned) [Example 188, 3-Isopropyl-5-methyl-6-[(2-oxoimidazolidin-1-yl)methyl]-1-(tetrahydrofuran-2-ylmethyl)thieno[2,3-d]pyrimidine-2,4(1H,3H)-dione] | 40
Cc1c(CN2CCNC2=O)sc2c1c(=O)n(CC(C)C)c(=O)n2CC1CCO1 (single isomer, unassigned) [Example 195, 3-Isobutyl-5-methyl-1-(oxetan-2-ylmethyl)-6-[(2-oxoimidazolidin-1-yl)methyl]thieno[2,3-d]pyrimidine-2,4(1H,3H)-dione] | 41
Cc1c(CN2CCNC2=O)sc2c1c(=O)n(CC(C)C)c(=O)n2CC1CCO1 (single isomer, unassigned) [Example 196, 3-Isobutyl-5-methyl-1-(oxetan-2-ylmethyl)-6-[(2-oxoimidazolidin-1-yl)methyl]thieno[2,3-d]pyrimidine-2,4(1H,3H)-dione] | 6.5
Cc1c(CN2CCNC2=O)sc2c1c(=O)n(CC(C)C)c(=O)n2CC1CCCO1 (single isomer, unassigned) [Example 197, 3-Isobutyl-5-methyl-6-[(2-oxoimidazolidin-1-yl)methyl]-1-(tetrahydrofuran-2-ylmethyl)thieno[2,3-d]pyrimidine-2,4(1H,3H)-dione] | 18
Cc1c(CN2CCNC2=O)sc2c1c(=O)n(CC(C)C)c(=O)n2CC1CCCO1 (single isomer, unassigned) [Example 198, 3-Isobutyl-5-methyl-6-[(2-oxoimidazolidin-1-yl)methyl]-1-(tetrahydrofuran-2-ylmethyl)thieno[2,3-d]pyrimidine-2,4(1H,3H)-dione] | 8.9
Cc1c(CN2CCNC2=O)sc2c1c(=O)n(CC(F)(F)F)c(=O)n2CC1CCO1 (single isomer, unassigned) [Example 207, 5-Methyl-1-(oxetan-2-ylmethyl)-6-[(2-oxoimidazolidin-1-yl)methyl]-3-(2,2,2-trifluoroethyl)thieno[2,3-d]pyrimidine-2,4(1H,3H)-dione] | 43
Cc1c(CN2CCNC2=O)sc2c1c(=O)n(CC(F)(F)F)c(=O)n2CC1CCO1 (single isomer, unassigned) [Example 208, 5-Methyl-1-(oxetan-2-ylmethyl)-6-[(2-oxoimidazolidin-1-yl)methyl]-3-(2,2,2-trifluoroethyl)thieno[2,3-d]pyrimidine-2,4(1H,3H)-dione] | 8.9
Cc1c(CN2CCNC2=O)sc2c1c(=O)n(CC(F)(F)F)c(=O)n2CC1CCCO1 (single isomer, unassigned) [Example 210, 5-Methyl-6-[(2-oxoimidazolidin-1-yl)methyl]-1-(tetrahydrofuran-2-ylmethyl)-3-(2,2,2-trifluoroethyl)thieno[2,3-d]pyrimidine-2,4(1H,3H)-dione] | 9.1
Cc1c(CN2CCNC2=O)sc2c1c(=O)n(CC(F)(F)F)c(=O)n2CC1CCCO1 (single isomer, unassigned) [Example 211, 5-Methyl-6-[(2-oxoimidazolidin-1-yl)methyl]-1-(tetrahydrofuran-2-ylmethyl)-3-(2,2,2-trifluoroethyl)thieno[2,3-d]pyrimidine-2,4(1H,3H)-dione] | 17
Cc1c(CN2CCNC2=O)sc2c1c(=O)n(CC(F)F)c(=O)n2CC1CCO1 (single isomer, unassigned) [Example 217, 3-(2,2-Difluoroethyl)-5-methyl-1-(oxetan-2-ylmethyl)-6-[(2-oxoimidazolidin-1-yl)methyl]thieno[2,3-d]pyrimidine-2,4(1H,3H)-dione] | 79
Cc1c(CN2CCNC2=O)sc2c1c(=O)n(CC(F)F)c(=O)n2CC1CCO1 (single isomer, unassigned) [Example 218, 3-(2,2-Difluoroethyl)-5-methyl-1-(oxetan-2-ylmethyl)-6-[(2-oxoimidazolidin-1-yl)methyl]thieno[2,3-d]pyrimidine-2,4(1H,3H)-dione] | 22
Cc1c(CN2CCNC2=O)sc2c1c(=O)n(CC(F)F)c(=O)n2CC1CCCO1 (single isomer, unassigned) [Example 220, 3-(2,2-Difluoroethyl)-5-methyl-6-[(2-oxoimidazolidin-1-yl)methyl]-1-(tetrahydrofuran-2-ylmethyl)thieno[2,3-d]pyrimidine-2,4(1H,3H)-dione] | 15
Cc1c(CN2CCNC2=O)sc2c1c(=O)n(CC(F)F)c(=O)n2CC1CCCO1 (single isomer, unassigned) [Example 221, 3-(2,2-Difluoroethyl)-5-methyl-6-[(2-oxoimidazolidin-1-yl)methyl]-1-(tetrahydrofuran-2-ylmethyl)thieno[2,3-d]pyrimidine-2,4(1H,3H)-dione] | 29
COCCn1c(=O)n(CC(C)OC)c(=O)c2c(C)c(CN3CCNC3=O)sc21 (single isomer, unassigned) [Example 234, 1-(2-Methoxyethyl)-3-(2-methoxypropyl)-5-methyl-6-[(2-oxoimidazolidin-1-yl)methyl]thieno[2,3-d]pyrimidine-2,4(1H,3H)-dione] | 7.8
COCCn1c(=O)n(CC(C)OC)c(=O)c2c(C)c(CN3CCNC3=O)sc21 (single isomer, unassigned) [Example 235, 1-(2-Methoxyethyl)-3-(2-methoxypropyl)-5-methyl-6-[(2-oxoimidazolidin-1-yl)methyl]thieno[2,3-d]pyrimidine-2,4(1H,3H)-dione] | 38
CCn1c(=O)c2c(C)c(Cn3cc[nH]c3=O)sc2n(CC2CCCO2)c1=O (single isomer, unassigned) [Example 243, 3-Ethyl-5-methyl-6-[(2-oxo-2,3-dihydro-1H-imidazol-1-yl)methyl]-1-(tetrahydrofuran-2-ylmethyl)thieno[2,3-d]pyrimidine-2,4(1H,3H)-dione] | 14
CCn1c(=O)c2c(C)c(Cn3cc[nH]c3=O)sc2n(CC2CCCO2)c1=O (single isomer, unassigned) [Example 244, 3-Ethyl-5-methyl-6-[(2-oxo-2,3-dihydro-1H-imidazol-1-yl)methyl]-1-(tetrahydrofuran-2-ylmethyl)thieno[2,3-d]pyrimidine-2,4(1H,3H)-dione] | 13
Cc1c(Cn2cc[nH]c2=O)sc2c1c(=O)n(C(C)C)c(=O)n2CC1CCCO1 (single isomer, unassigned) [Example 248, 3-Isopropyl-5-methyl-6-[(2-oxo-2,3-dihydro-1H-imidazol-1-yl)methyl]-1-(tetrahydrofuran-2-ylmethyl)thieno[2,3-d]pyrimidine-2,4(1H,3H)-dione] | 5.1
Cc1c(Cn2cc[nH]c2=O)sc2c1c(=O)n(C(C)C)c(=O)n2CC1CCCO1 (single isomer, unassigned) [Example 249, 3-Isopropyl-5-methyl-6-[(2-oxo-2,3-dihydro-1H-imidazol-1-yl)methyl]-1-(tetrahydrofuran-2-ylmethyl)thieno[2,3-d]pyrimidine-2,4(1H,3H)-dione] | 41
CCn1c(=O)c2c(C)c(CN3CCNC3=NC#N)sc2n(CC2CCO2)c1=O (single isomer, unassigned) [Example 257, [1-{[3-Ethyl-5-methyl-1-(oxetan-2-ylmethyl)-2,4-dioxo-1,2,3,4-tetrahydrothieno[2,3-d]pyrimidin-6-yl]methyl}imidazolidin-2-ylidene]cyanamide] | 7.1
CCn1c(=O)c2c(C)c(CN3CCNC3=NC#N)sc2n(CC2CCO2)c1=O (single isomer, unassigned) [Example 258, [1-{[3-Ethyl-5-methyl-1-(oxetan-2-ylmethyl)-2,4-dioxo-1,2,3,4-tetrahydrothieno[2,3-d]pyrimidin-6-yl]methyl}imidazolidin-2-ylidene]cyanamide] | 33
CCn1c(=O)c2c(C)c(CN3CCNC3=NC#N)sc2n(CC2CCCO2)c1=O (single isomer, unassigned) [Example 260, [1-{[3-Ethyl-5-methyl-2,4-dioxo-1-(tetrahydrofuran-2-ylmethyl)-1,2,3,4-tetrahydrothieno[2,3-d]pyrimidin-6-yl]methyl}imidazolidin-2-ylidene]cyanamide] | 2.2
CCn1c(=O)c2c(C)c(CN3CCNC3=NC#N)sc2n(CC2CCCO2)c1=O (single isomer, unassigned) [Example 261, [1-{[3-Ethyl-5-methyl-2,4-dioxo-1-(tetrahydrofuran-2-ylmethyl)-1,2,3,4-tetrahydrothieno[2,3-d]pyrimidin-6-yl]methyl}imidazolidin-2-ylidene]cyanamide] | 9.9
Cc1c(CN2CCNC2=NC#N)sc2c1c(=O)n(C(C)C)c(=O)n2CC1CCO1 (single isomer, unassigned) [Example 265, [1-{[3-Isopropyl-5-methyl-1-(oxetan-2-ylmethyl)-2,4-dioxo-1,2,3,4-tetrahydrothieno[2,3-d]pyrimidin-6-yl]methyl}imidazolidin-2-ylidene]cyanamide] | 14
Cc1c(CN2CCNC2=NC#N)sc2c1c(=O)n(C(C)C)c(=O)n2CC1CCO1 (single isomer, unassigned) [Example 266, [1-{[3-Isopropyl-5-methyl-1-(oxetan-2-ylmethyl)-2,4-dioxo-1,2,3,4-tetrahydrothieno[2,3-d]pyrimidin-6-yl]methyl}imidazolidin-2-ylidene]cyanamide] | 75
Cc1c(Cn2[nH]ccc2=O)sc2c1c(=O)n(CC(F)(F)F)c(=O)n2CC1CCCO1 (single isomer, unassigned) [Example 285, 5-Methyl-6-[(5-oxo-2,5-dihydro-1H-pyrazol-1-yl)methyl]-1-(tetrahydrofuran-2-ylmethyl)-3-(2,2,2-trifluoroethyl)thieno[2,3-d]pyrimidine-2,4(1H,3H)-dione] | 91
